The values that follow are results of earlier work, collected in PMC5736175, “Nicotinic alpha 7 receptor agonists EVP-6124 and BMS-933043, attenuate scopolamine-induced deficits in visuo-spatial paired associates learning” (PLoS ONE, 2017).

One data set concerns human nAChR α7. On the set-up: method as in PMID 27467081. To be noted: intrinsic activity; HEK293 cells expressing human nAChR α7; cited from earlier work.
Another data set has as its system 5-HT3 receptor. To be noted: cited from earlier work.

On to `c1cn(-c2cc(NC3=NC[C@@]4(CN5CCC4CC5)O3)ncn2)cn1` [BMS-933043, (2R)-N-(6-(1H-imidazol-1-yl)-4-pyrimidinyl)-4'H-spiro[4-azabicyclo[2.2.2]octane-2,5'-[1, 3]oxazol]-2'-amine], for which, in the data set with human nAChR α7, the “net charge relative to acetylcholine” value is recorded as 78% and the “peak current response relative to acetylcholine” value is reported as 24%. The “selectivity for nAChR α7 versus the 5-HT3 receptor” value with 5-HT3 receptor is listed as “highly selective”.
